Results on 18 compounds are retold here after ChEMBL document CHEMBL5042530, “Discovery of Novel Pyridine-Dimethyl-Phenyl-DAPY Hybrids by Molecular Fusing of Methyl-Pyrimidine-DAPYs and Difluoro-Pyridinyl-DAPYs: Improving the Druggability toward High Inhibitory Activity, Solubility, Safety, and PK” (J Med Chem, 2022).

For data set [1], the system named is Human immunodeficiency virus 1. The data set is described as follows: Antiviral activity against wild type HIV-1 IIIB infected in human MT4 cells assessed as protection against virus-induced cytotoxicity incubated for 5 days by MTT assay. Type of data set: functional, organism-based. Particulars: Human immunodeficiency virus 1, IIIB, MT4, 120 h. A general note: Tetrazolium dyes change colour on reduction, which living cells bring about.

The target of data set [2] is Human immunodeficiency virus type 1 reverse transcriptase (Human immunodeficiency virus 1, UniProt Q72547). The data set is described as follows: Inhibition of recombinant wild type p66/p51 HIV1 reverse transcriptase incubated for 40 mins by picogreen dye-based spectrofluorometric analysis.
The subject of data set [3] is Human immunodeficiency virus 1. Description: Antiviral activity against HIV-1 harboring K103N mutant infected in human MT4 cells assessed as protection against virus-induced cytotoxicity incubated for 5 days by MTT assay. Type of data set: functional, organism-based. Particulars: Human immunodeficiency virus 1, MT4, 120 h.
A short description of data set [4]: Selectivity index, ratio of CC50 for cytotoxicity against human MT4 cells to EC50 for antiviral activity against HIV-1 IIIB infected in human MT4 cells. Particulars: read-out: Ratio CC50/EC50. Type of data set: toxicity, cell-based.
Data set [5] concerns Human immunodeficiency virus 1. The data set is described as follows: Antiviral activity against HIV-1 harboring Y181C mutant infected in human MT4 cells assessed as protection against virus-induced cytotoxicity incubated for 5 days by MTT assay. Type of data set: functional, organism-based. Particulars: Human immunodeficiency virus 1, MT4, 120 h.
Data set [6] concerns Human immunodeficiency virus 1. The data set is described as follows: Antiviral activity against HIV-1 harboring RT L100I mutant infected in human MT4 cells assessed as protection against virus-induced cytotoxicity incubated for 5 days by MTT assay. Particulars: Human immunodeficiency virus 1, MT4, 120 h. Type of data set: functional, organism-based.
Data set [7] relates to Human immunodeficiency virus 1. Description: Antiviral activity against HIV-1 harboring E138K mutant infected in human MT4 cells assessed as protection against virus-induced cytotoxicity incubated for 5 days by MTT assay. Particulars: Human immunodeficiency virus 1, MT4, 120 h. Type of data set: functional, organism-based.
A short description of data set [8]: Cytotoxicity against human MT4 cells assessed as reduction in cell viability measured after 5 days by MTT assay. Type of data set: toxicity, cell-based. Particulars: time 5 day.
Data set [9] has as its system Human immunodeficiency virus 1. Description: Antiviral activity against HIV-1 harboring Y188L mutant infected in human MT4 cells assessed as protection against virus-induced cytotoxicity incubated for 5 days by MTT assay. Type of data set: functional, organism-based. Particulars: Human immunodeficiency virus 1, MT4, 120 h.

A value given as a limit tells only on which side of the number the result lay.

As a reminder, the EC50 is the concentration at which the effect is half-maximal. Broadly, the IC50 is the point on the concentration scale where inhibition reaches its midpoint. In general, CC50 refers to the concentration that lowers cell viability or growth by half. Take `Cc1cc(-c2ccc3cc[nH]c3c2)cc(C)c1Nc1ccnc(Nc2ccc(C#N)cc2)n1`: the EC50 in data set [1] is 21 nM; in data set [3], 209 nM; in data set [5], 497 nM; in data set [6], 577 nM; in data set [7], 139 nM. For the same compound, in data set [2], the half-maximal inhibitory concentration (IC50) was 53.4 nM. Also, in [4], the selectivity ratio stood at 275. Further, the CC50 at 120 h in data set [8] is 5800 nM.
For `Cc1cnc(Nc2ccc(C#N)cc2)nc1Nc1c(F)cc(-c2cncc(C#N)c2)cc1F`, the concentration for a half-maximal effect (EC50) in data set [1] was 24 nM; in data set [9] it was over 2000 nM; in [3], 135 nM; in data set [5], 1410 nM; in data set [6], 1880 nM; in data set [7], 86 nM. Besides, in [2], the IC50 is 271 nM. Also, the selectivity ratio in data set [4] worked out at 2080. Also, the CC50 at 120 h in [8] came out at 50000 nM.
As to `Cc1cc(-c2cccc3cc[nH]c23)cc(C)c1Nc1ccnc(Nc2ccc(C#N)cc2)n1`, the EC50 worked out at 23 nM in data set [1], 271 nM in data set [3] and 124 nM in data set [7]. Moreover, the IC50 in [2] turned out to be 60.5 nM. For the same compound, the selectivity ratio in data set [4] amounted to 44. Moreover, the half-maximal cytotoxic concentration (CC50) at 120 h in [8] amounted to 1000 nM.
With `Cc1cnc(Nc2ccc(C#N)cc2)nc1Nc1c(F)cc(-c2ccoc2)cc1F`, the concentration giving a half-maximal response (EC50) in data set [1] is 5.7 nM; in data set [9], 1340 nM; in data set [3], 48 nM; in [5], 150 nM; in data set [6], 228 nM; in data set [7] it was 12.3 nM. In data set [2], the IC50 turned out to be 8.4 nM. Besides, in data set [4], the selectivity ratio is 742. In data set [8], the half-maximal cytotoxic concentration (CC50) at 120 h is 4200 nM.
Take `Cc1csc(-c2cc(C)c(Nc3ccnc(Nc4ccc(C#N)cc4)n3)c(C)c2)c1`: the half-maximal effective concentration (EC50) in [1] was 11 nM; in data set [9], 941 nM; in data set [3] it was 50 nM; in data set [5], 116 nM; in data set [6] it was 231 nM; in data set [7], 43 nM. Also, the half-maximal inhibitory concentration (IC50) in [2] is 56 nM. Moreover, in data set [4], the selectivity ratio turned out to be 3060. Also, the CC50 at 120 h in data set [8] was determined as 34000 nM.
On to `Cc1cnc(Nc2ccc(C#N)cc2)nc1Nc1c(F)cc(-c2ccnc(F)c2)cc1F`, for which the EC50 was 3.7 nM in [1]; over 2000 nM in [9]; 20.9 nM in data set [3]; 74.5 nM in data set [5]; 105 nM in data set [6]; 17.9 nM in data set [7]. The IC50 in data set [2] was 36 nM. Besides, the selectivity ratio in data set [4] came out at 45200. The CC50 at 120 h in data set [8] stood at 167000 nM.
As for `Cc1cnc(Nc2ccc(C#N)cc2)nc1Nc1c(F)cc(-c2cccs2)cc1F`, the 50% effective concentration (EC50) in data set [1] is 6 nM; in [9], 980 nM; in [3], 51 nM; in [5], 241 nM; in data set [6], 176 nM; in data set [7], 12 nM. Further, the IC50 in data set [2] turned out to be 12 nM. Moreover, in data set [4], the selectivity ratio stood at 1330. Further, the 50% cytotoxic concentration (CC50) at 120 h in data set [8] came out at 8000 nM.
Turning to `Cc1ccc(-c2cc(C)c(Nc3ccnc(Nc4ccc(C#N)cc4)n3)c(C)c2)s1`, the EC50 in [1] was determined as 11 nM; in [9], 1280 nM; in [3] it was 57 nM; in [5], 179 nM; in data set [6], 249 nM; in data set [7], 47 nM. In addition, the half-maximal inhibitory concentration (IC50) in data set [2] is 43.8 nM. Moreover, the selectivity ratio in data set [4] amounted to 2570. Also, the CC50 at 120 h in data set [8] came to 28000 nM.
With `Cc1cnc(Nc2ccc(C#N)cc2)nc1Nc1c(F)cc(-c2ccsc2)cc1F`, the EC50 in [1] amounted to 7.1 nM; in [9] it was 1290 nM; in data set [3] it was 185 nM; in data set [5], 306 nM; in data set [6], 279 nM; in [7] it was 49.5 nM. Besides, the IC50 in data set [2] stood at 12 nM. The selectivity ratio in [4] worked out at 36700. The CC50 at 120 h in [8] was 261000 nM.
Consider `Cc1cc(-c2ccnc(C(F)(F)F)c2)cc(C)c1Nc1ccnc(Nc2ccc(C#N)cc2)n1`, for which the EC50 in data set [1] is 6.6 nM; in data set [3], 37 nM; in data set [5], 128 nM; in [6], 231 nM; in data set [7], 47 nM. Moreover, the IC50 in data set [2] came to 68.5 nM. The selectivity ratio in data set [4] was determined as 923. For the same compound, in data set [8], the CC50 at 120 h was 6100 nM.
In the case of `Cc1cc(-c2ccco2)cc(C)c1Nc1ccnc(Nc2ccc(C#N)cc2)n1`, the EC50 was 5.1 nM in [1]; 150 nM in data set [9]; 10 nM in data set [3]; 28 nM in data set [5]; 51 nM in data set [6]; 14 nM in data set [7]. The half-inhibitory concentration (IC50) in data set [2] amounted to 38.1 nM. In data set [4], the selectivity ratio worked out at 335. Also, the CC50 at 120 h in [8] was 1700 nM.
With `Cc1cnc(Nc2ccc(C#N)cc2)nc1Nc1c(F)cc(-c2cncnc2)cc1F`, the concentration giving a half-maximal response (EC50) in data set [1] was 16 nM; in data set [9], over 916 nM; in [3], 88 nM; in data set [5] it was over 916 nM; in [6] it was over 916 nM; in data set [7], 87 nM. Also, in data set [2], the half-maximal inhibitory concentration (IC50) stood at 280 nM. Further, in [4], the selectivity ratio was 59. Besides, the CC50 at 120 h in data set [8] came to 900 nM.
Take `Cc1cnc(Nc2ccc(C#N)cc2)nc1Nc1c(F)cc(-c2cccnc2)cc1F`: the EC50 in data set [1] is 14 nM; in data set [9], over 1090 nM; in data set [3], 111 nM; in [5] it was over 1090 nM; in data set [6], over 1090 nM; in data set [7], 59 nM. In addition, the IC50 in data set [2] was found to be 197 nM. Moreover, in data set [4], the selectivity ratio came to 80. The CC50 at 120 h in data set [8] came to 1100 nM.
Consider `Cc1cnc(Nc2ccc(C#N)cc2)nc1Nc1c(F)cc(-c2ccncc2)cc1F`, for which the half-maximal effective concentration (EC50) was 258 nM in data set [9]; 5.4 nM in [3]; 22 nM in [5]; 35 nM in data set [6]; 9.2 nM in [7]. Further, the IC50 in data set [2] was found to be 12 nM.
Turning to `Cc1cnc(Nc2ccc(C#N)cc2)nc1Nc1c(F)cc(-c2cc(F)nc(F)c2)cc1F`, the EC50 in [1] is 11 nM; in [9], over 2000 nM; in data set [3] it was 117 nM; in data set [5], 285 nM; in data set [6], 1730 nM; in data set [7] it was 66 nM. The concentration for half-maximal inhibition (IC50) in data set [2] is 55 nM. The selectivity ratio in data set [4] came out at 9570. Further, the CC50 at 120 h in [8] is 103000 nM.
As to `Cc1cnc(Nc2ccc(C#N)cc2)nc1Nc1c(F)cc(-c2ccco2)cc1F`, the concentration for a half-maximal effect (EC50) is 4.2 nM in data set [1]; 856 nM in data set [9]; 33 nM in data set [3]; 187 nM in [5]; 114 nM in data set [6]; 11.2 nM in data set [7]. For the same compound, in data set [2], the half-maximal inhibitory concentration (IC50) is 12 nM. The selectivity ratio in [4] is 1920. In addition, the 50% cytotoxic concentration (CC50) at 120 h in data set [8] was 8100 nM.
Regarding `Cc1cnc(Nc2ccc(C#N)cc2)nc1Nc1c(F)cc(-c2ccc(C#N)nc2)cc1F`, the EC50 in [1] came to 1.6 nM; in data set [9] it was 2380 nM; in data set [3], 11 nM; in data set [5], 35 nM; in data set [6] it was 52 nM; in [7] it was 8.5 nM. In data set [2], the IC50 came out at 22 nM. In addition, the selectivity ratio in [4] is 37500. In addition, in [8], the CC50 at 120 h worked out at 62000 nM.
With `Cc1ccnc2c1NC(=O)c1cccnc1N2C1CC1` [NEVIRAPINE], the EC50 in data set [9] is over 2000 nM. Further, in data set [8], the CC50 at 120 h was over 15000 nM.
